Results published in article PMC6688628, “N-Substituted Pyrrole Derivative 12m Inhibits HIV-1 Entry by Targeting Gp41 of HIV-1 Envelope Glycoprotein” (Frontiers in Pharmacology, 2019).

Experiments:
XTT assay, CHO-WT cells = type: cell-based; conditions: Chinese hamster
Method: (§1) The in vitro cell viability of NSPD-12m on HIV-1 target cells (U87-CD4-CXCR4, U87-CD4-CCR5, TZM-bl, and MT-2 cells) and HIV effector cells (CHO-WT cells) was analyzed by an XTT colorimetric assay. Briefly, 100 µl of 5 × 10^5/ml cells was mixed and incubated with 100 µl of NSPD-12m at graded concentrations at 37°C for 3 days. Then, 50 µl of XTT solution (1 mg/ml) containing 0.02 µM of phenazinemethosulphate (PMS) was added to each well, and the cells were incubated at 37°C for another 4 h. The absorbance at 450 nm was measured with an ELISA reader. The 50% cytotoxicity concentrations (CC50) were calculated using the CalcuSyn software ([Chou and Talalay, 1984]).

[1] = tested on: HIV-1HXB2 (X4 strain) Env pseudotyped virus; test: microbe, parasite or virus in culture; type: cell-based; conditions: Human immunodeficiency virus 1, single-cycle infection, luciferase
HIV-1 NL4-3(36G)V38A = conditions: T20-resistant NL4-3(36G)V38A; p24 ELISA; mean ± SD
HIV-1 92UG029 = test: Anti-HIV-1 activity, primary strain 92UG029; type: cell-based; conditions: Human immunodeficiency virus 1, luciferase readout, mean ± SD
[2] = tested on: HIV-1JR-FL Env mutant R579A pseudovirus; type: cell-based; conditions: compared with wild-type HIV-1JR-FL pseudovirus
[3] = XTT assay, U87-CD4-CCR5 cells; type: cell-based; conditions: human
Method: as §1

gp41 6-HB (N36/C34) [4] = target: T1, gp41 6-HB (N36/C34) (Human immunodeficiency virus type 1 group M subtype B, UniProt P04578); test: Sandwich ELISA for gp41 6-HB formation; type: biochemical, HIV-1; conditions: sandwich ELISA with mAb NC-1; 0.5-µM N36 and C34
T1 construct: purchased GL Biochem of China; host or cells: chemical solid-phase Fmoc synthesis
Method: The inhibition of gp41 6-HB formation by NSPD-12m was determined by a sandwich ELISA as previously described ([Liu et al., 2007]). In brief, the wells of a 96-well polystyrene plate (Corning) were first precoated with 2 µg/ml IgG purified from rabbit antisera against the N36/C34 complex at 4°C overnight. In addition, the wells were blocked by 2% dry nonfat milk at 37°C for 1 h. NSPD-12m at graded concentrations was incubated with 0.5-µM N36 at 37°C for 30 min, followed by the addition of 0.5-µM C34 at 37°C for another 30-min incubation. Afterward, the previously mentioned mixtures were added to the prepared wells and incubated at 37°C for another 1 h. Then, 1 µg/ml mAb NC-1, biotin-labeled goat anti-mouse IgG (1:10,000 diluted in PBS buffer with 2% dry nonfat milk), SA-HRP (1:20,000 diluted in PBS buffer with 10% goat serum), TMB, and 1-M H2SO4 were added sequentially. A450 was measured by an ELISA reader, and EC50 was calculated using CalcuSyn software ([Chou and Talalay, 1984]). NB-64, a small-molecule HIV entry inhibitor targeting gp41, and ADS-J1 were used as positive controls.

[5] = tested on: primary HIV-1 strains, including the X4, R5, and X4R5 strains; test: Anti-HIV-1 activity, panel of primary HIV-1 strains; type: cell-based; conditions: Human immunodeficiency virus 1; range over X4, R5 and X4R5 primary strains; read-out: EC50 values against all tested representative primary HIV-1 strains
Method: The HIV-1 replication-inhibiting activity of compounds was determined as previously described ([Li et al., 2013]). Briefly, 1 × 10^4 TZM-bl or MT-2 cells were infected with primary HIV-1 strains or T20-resistant HIV-1 strains (100 TCID50) in 200 µl of RPMI-1640 medium containing 10% FBS in the presence or absence of compounds at graded concentrations for 12 h. The culture medium was replaced with fresh medium without the compounds. After culture for an additional 48 h, supernatants or cells were collected from each well. For the primary HIV-1 strains, the cells were treated using a luciferase kit. Briefly, the cells were lysed with the lysis reagent and were transferred into a 96-well flat-bottom luminometer plate after three washes with phosphate-buffered saline (PBS) (Costar Corning Inc., Corning, NY), followed by addition of the luciferase substrate included in the luciferase kit (Promega Corp., Madison, WI). The luciferase activity was measured immediately by an Ultra 384 microplate reader (Tecan, Research Triangle Park, NC). T20 was used as a positive control. For the T20-resistant HIV-1 strains, 100 µl of culture supernatant was mixed with 100 µl of 5% Triton X-100. […] Absorbance at 450 nm was recorded in an ELISA reader (Ultra 384, Tecan). EC50 values were calculated using the computer program CalcuSyn ([Chou and Talalay, 1984]).

[6] = tested on: HIV-1JR-FL (R5 strain) Env pseudotyped virus; test: microbe, parasite or virus in culture; type: cell-based; conditions: Human immunodeficiency virus 1, single-cycle infection, luciferase
VSV-G pseudotyped virus = type: cell-based, vesicular stomatitis virus
gp41 6-HB (N36/C34) [7] = target: T1, gp41 6-HB (N36/C34); test: N-PAGE for gp41 6-HB formation; type: biochemical, HIV-1; conditions: 400, 200, 100, 50, and 25 μM incubated with N36 before C34; dose-dependent
Method: The inhibition of gp41 6-HB formation by NSPD-12m was further confirmed by N-PAGE as reported previously ([Liu et al., 2005]). Briefly, NSPD-12m at the indicated concentrations was incubated with the peptide N36 (100 μM in PBS) at 37°C for 30 min before the addition of the peptide C34 (100 μM in PBS). After incubation at 37°C for another 30 min, the mixture was diluted in Tris-glycine native sample buffer (Invitrogen, Carlsbad, CA) and then loaded onto 10 × 1.0-cm precast Tris-glycine gels (18%, Invitrogen) at 20 µl/well. Gel electrophoresis was carried out at constant voltage of 120 V at room temperature (RT) for 2 h in Tris-glycine native running buffer. Immediately after electrophoresis, the gel was stained by Coomassie blue (Invitrogen) and imaged by the FluorChem 8800 Imaging System (Alpha Innotech, San Leandro, CA). ADS-J1 (1 mM in PBS), a small-molecule HIV-1 entry inhibitor that blocks gp41 6-HB formation, was used as a positive control ([Wang et al., 2009]).

T1 sequence (P04578 546-581): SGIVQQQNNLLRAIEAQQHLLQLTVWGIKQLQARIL

Cc1cc(/C=C2\SC(=S)N(Cc3ccccc3C(F)(F)F)C2=O)c(C)n1-c1ccc(O)c(C(=O)O)c1 [NSPD-12m]
CC50 at 3 days (XTT assay, CHO-WT cells): 60 ± 13.2 µM
CC90 at 3 days (XTT assay, CHO-WT cells): 74.6 ± 13.8 µM
EC50 [1]: ~23.1 µM
IC50 (HIV-1 NL4-3(36G)V38A): 23.7 ± 5.15 µM
IC90 (HIV-1 NL4-3(36G)V38A): 32.5 ± 5.42 µM
IC50 (HIV-1 92UG029): 2.08 ± 0.041 µM
IC90 (HIV-1 92UG029): 2.48 ± 0.041 µM
inhibitory activity against R579A mutant pseudovirus [2]: retained the inhibitory activity
CC50 at 3 days [3]: 84.7 ± 14.5 µM
CC90 at 3 days [3]: 102 ± 18.3 µM
EC50 (gp41 6-HB (N36/C34) [4]): 23 ± 1.44 µM
EC50 [5]: 2.03 to 6.85 µM
EC50 [6]: ~14 µM
inhibition of VSV-G pseudovirus infection (VSV-G pseudotyped virus): could not be strongly inhibited
intensity of the 6-HB band (upper position) in N-PAGE (gp41 6-HB (N36/C34) [7]): decreased
